Data from patent US4877619A, “Liposomal vesicles for intraperitoneal administration of therapeutic agents” (priority 1987, dated 1989).
Read-outs that look alike come from different tables or passages of the source.

What was measured:
[1] = format: physicochemical
Experimental: 3.9 ml of the Na-IBF solution is injected into each flask containing lipid film. The flasks are vortex-stirred for 40 to 60 minutes in a 65° C. water bath under nitrogen. (The nitrogen purge is first passed through a 0.22 micron filter.) To the contents of each flask is added sterile, pyrogen-free phosphate buffered saline, and the flasks are centrifuged for 6 to 10 minutes at 15,000 rpm. This washing procedure is repeated for a total of five times to remove unencapsulated Na-IBF. The contents of the flasks are then combined and PBS (5 mM PO4^3- in 0.15 N NaCl) is added to a total of 32 ml. The liposome suspension thus produced comprises ILDVs of about 1 micron or larger in size suspended in the PBS.

[2] = rat, in vivo, ip
Experimental: At the times indicated in the table, the animals were anesthetized, exsanguinated and the peritoneal cavities lavaged three time with 20 ml phosphate-buffered saline. The lavage fluid was pooled and centrifuged at low speed. "Peritoneal fluid" refers to fluid lavaged and pooled from the peritoneal cavity and contains small sized vesicles. "Peritoneal pellet" refers to the pelleted portion of the lavaged peritoneal fluid, and contains cellular matter (predominately peritoneal macrophage) and large vesicles. The remaining tissues were collected, washed, blotted, weighed and distributed into tubes for gamma counting.

Row | Feces ([2]; 1 h) | TOTAL ([2]; 1 h) | Urine ([2]; 1 h) | Feces ([2]; 2 h) | TOTAL ([2]; 2 h) | Urine ([2]; 2 h) | Feces ([2]; 6 h) | TOTAL ([2]; 6 h) | Urine ([2]; 6 h) | Feces ([2]; 24 h) | TOTAL ([2]; 24 h) | Urine ([2]; 24 h) | Compound | Storage stability of liposome suspension [1] | Clearance after intraperitoneal injection [2]
1 |  |  |  |  |  |  |  |  |  |  |  |  | Sodium Ibuprofenate | storage-stable for a period of several months | 
2 | 4.6 % Inj. Dose | 32.58 % Inj. Dose | 19 % Inj. Dose | .02 % Inj. Dose | 76.73 % Inj. Dose | 73 % Inj. Dose | 7.6 % Inj. Dose | 71.27 % Inj. Dose | 60.2 % Inj. Dose | 16.83 % Inj. Dose | 33.91 % Inj. Dose | 14.05 % Inj. Dose | O=C([O-])CN(CCN(CC(=O)[O-])CC(=O)[O-])CC(=O)[O-].[111In+3] [^111 In-EDTA, Indium-III chelated to ethylenediamine tetracetic acid] |  | rapid clearance from the peritoneal cavity and from the whole body
